1 compound from paper PMC5005245, “Chemical and pharmacological evaluations on the extract of Scutellaria baicalensis Georgi (Huang-Qin) prepared by various extraction methods” (SpringerPlus, 2016) can be followed below.

Assay [1] is described as follows: FRAP assay. As to conditions: positive control, 1 mM was used; mean ± SEM (n = 3). On the procedure:
The FRAP assay was performed in a 96-well plate as described (Firuzi et al. [2005]). Briefly, 5 µl of each sample was mixed with 150 µl of freshly prepared FRAP reagent (250 mM acetate buffer, pH 3.6; 8.3 mM 2,4,6-tripyridyl-s-triazine dissolved in 40 mM HCl and 16.7 mM FeCl3·6H2O solution). After incubation at 37 °C for 30 min, the absorbance of the solution was measured at 593 nm. Different concentrations of Fe^2+ standard solution were used for the construction of the standard curve, and ascorbic acid was used as the positive control.

A short description of assay [2]: DPPH free radicals scavenging assay. As to conditions: concentration of sample which scavenges 50 % of free radicals; 30 min; mean ± SEM (n = 3). The method, then: The free radicals scavenging capacities (SC) were measured and compared using the DPPH assay (Chan et al. [2010]). Briefly, 5 µl of individual extract (0.625–10 mg/ml) was mixed with 195 μl of DPPH solution (24 mg/l) in a 96-well plate. The reaction was allowed to proceed in the dark for 30 min before the absorbance of the resultant solution was measured at 515 nm using a Micro-plate Absorbance Reader (Bio-Rad, CA, USA). Ascorbic acid (Sigma-Aldrich Chemicals Co., MO, USA) in distilled water served as the positive control. SC50 was estimated as the concentration of sample which scavenges 50 % of free radicals.

Structures are written as SMILES.

Regarding `O=C1O[C@H]([C@@H](O)CO)C(O)=C1O` [Ascorbic acid], the FRAP assay in assay [1] was 2278 ± 15 μmol Fe^2+/mg extract. In addition, the “DPPH assay (SC50)” value in assay [2] turned out to be 0.107 ± 0.004 mg/mL.
